According to patent US10375956B2, “Herbicidally active 2-(substituted-phenyl)-cyclopentane-1,3-dione compounds and derivatives thereof” (Syngenta Limited, priority 2013, dated 2019):

Assays:
Assay type in all cases: in vivo
Avena fatua (AVEFA) = experiment: Test 1 glasshouse assay, post-emergence herbicidal activity; details: 312 h, post-emergence (Example 1B Table 2), after 13 days, read-out: Percentage phytotoxicity AVEFA
Description: (§1) Seeds of a variety of test species are sown in standard soil in pots. After cultivation for one day (pre-emergence) or after 8 days cultivation (post-emergence) under controlled conditions in a glasshouse (at 24/16° C., day/night; 14 hours light; 65% humidity), the plants are sprayed with an aqueous spray solution derived from the formulation of the “technical” (i.e. unformulated) active ingredient in acetone/water (50:50) solution containing 0.5% Tween 20 (polyoxyethylene sorbitan monolaurate, CAS Registry Number 9005-64-5). The test plants are then grown on under controlled conditions in a glasshouse (at 24/16° C., day/night; 14 hours light; 65% humidity) and watered twice daily. After 13 days for pre- or post-emergence, the test is evaluated visually, and an assessed percentage phytotoxicity score is given for each herbicidal application on each plant species (where 100%=total damage to plant; 0%=no damage to plant).
(§2) Lolium perenne (LOLPE), Alopecurus myosuroides (ALOMY), Echinochloa crus-galli (ECHCG), and Avena fatua (AVEFA); these are all grassy monocotyledonous weeds. Cool climate crop plant: Triticum aestivum (TRZAW, winter wheat).

[1] = tested on: Triticum aestivum (TRZAW, winter wheat); experiment: as above; details: 312 h, post-emergence (Example 1B Table 2), after 13 days, crop plant, read-out: Percentage phytotoxicity TRZAW
Description: as §1, §2

Lolium perenne (LOLPE) = experiment: as above; details: 312 h, post-emergence (Example 1B Table 2), after 13 days, read-out: Percentage phytotoxicity LOLPE
Description: as §1, §2

[2] = tested on: Zea mays (ZEAMX, maize/corn) cultivar Garland; experiment: Biological Example 3 glasshouse assay, post-emergence, various adjuvant systems; details: 8 g/ha; for percentage control of Zea mays: adjuvant 0.5% v/v TEHP + 1.0% v/v AMS + 12.5% v/v IPA
Description: (§3) Post-emergence foliar spray application, 200 L/ha, usually one or two replicates for the weeds (depending on application rate), and two replicates for soybean.
(§4) Standard warm conditions (tropical), in glasshouse. Specifically, the glasshouse bay conditions are 24° C./18° C. day/night; 16/8 hours light/dark; 65% humidity.
(§5) The herbicidal application takes place at the following growth stages for plants which include inter alia one or more of the following plants (usually the herbicidal application takes place on at least the following plants: DIGSA, ELEIN, SETFA, ZEAMX, GLXMA Nikko, and GLXMA TMG133, and often also either BRADC or BRAPP):
Zea mays (ZEAMX, maize/corn, e.g. can occur as volunteer corn) cultivar “Garland”—growth stage 12 or 13
(§6) Each test compound is applied with one of the following adjuvant systems (all percentages are final concentrations in the aqueous spray mixture):
(§7) Adjuvant system 2: 0.5% v/v Hexamoll™ DINCH**, 1.0% v/v AMS (ammonium sulphate) and 12.5% v/v IPA (isopropyl alcohol).
(§8) Adjuvant system 3: 0.5% v/v tris-(2-ethylhexyl)phosphate (“TEHP”), 1.0% v/v AMS (ammonium sulphate) and 12.5% v/v IPA (isopropyl alcohol).
(§9) Seeds of the weed (including volunteer) plants, typically including inter alia Digitaria sanguinalis (DIGSA), Eleusine indica (ELEIN), Setaria faberi (SETFA), Zea mays (ZEAMX, corn), and sometimes also [either Brachiaria decumbens (BRADC) or Brachiaria platyphylla (BRAPP)], are sown in seed trays (troughs) containing clay loam soil (pH 7.0, 2.2% organic matter, “Trough Mix A”); and soybean seed is sown in pots containing the same soil with 3 soybean seedlings per pot. The plants are sprayed with the test herbicide when they reach the growth stages mentioned above.
(§10) The test herbicidal solutions are prepared by mixing the appropriate aliquots of the test substance(s) and one of the adjuvant systems indicated above *** in deionised water to give the desired treatment concentration.
(§11) The herbicidal application is made as a foliar spray, using a tracksprayer. Following the herbicidal application, the plants are watered twice per day for the duration of the test.
(§12) A visual assessment of the % herbicidal damage is made 7 and 14 Days After herbicide Application (DAA) (or, in a minority of cases, 7 and 15 DAA), and the results are recorded as % visual herbicidal damage where 0%=no damage to plants and 100%=plant totally killed.
(§13) Compounds A2 and A7 were tested using the 0.5% v/v Hexamoll™ DINCH™+1.0% v/v AMS+12.5% v/v IPA adjuvant system. Compounds A11, A12, A14, A20 and A21 were tested using the 0.5% v/v tris-(2-ethylhexyl)phosphate (“TEHP”)+1.0% v/v AMS+12.5% v/v IPA adjuvant system.
(§14) The percentages of herbicidal damage/plant control, at 14 Days After herbicide Application (DAA) (or, in some cases, at 15 DAA), for the Compounds tested and for some of the plants tested, were in the following percentage ranges. For the tested compounds, the phytotoxicity results shown herein are generally the average of 2 or 3 repetitions (for the grassy weeds including corn) or the average of 2 repetitions (for soybean for most of the tested compounds). However, for Compound A2 on soybean there was 1 repetion only.
Zea mays (ZEAMX, maize, corn) is often present as a “volunteer” weed (“volunteer” corn) in fields where it was planted as a crop in preceding growing season(s) and where the present field crop is not corn.

[3] = tested on: Glycine max (GLXMA, soybean) cultivar Nikko; experiment: as above; details: 120 g/ha, crop
Description: as §3, §4, §5
Glycine max (GLXMA, soybean) cultivar “Nikko”—growth stage: 1st trifoliate
as §6, §7, §8, §9, §10, §11, §12, §13, §14

Eleusine indica (ELEIN) = experiment: as above; details: 8 g/ha; for percentage control of Eleusine indica: adjuvant 0.5% v/v TEHP + 1.0% v/v AMS + 12.5% v/v IPA
Description: as §3, §4, §5
Eleusine indica (ELEIN)—growth stage 12 or 13
as §6, §7, §8, §9, §10, §11, §12, §13, §14

[4] = tested on: Glycine max (GLXMA, soybean) cultivar TMG133 (Roundup Ready glyphosate-tolerant); experiment: as above; details: 120 g/ha, crop
Description: as §3, §4, §5
Glycine max (GLXMA, soybean) cultivar “TMG133”—which is Roundup Ready™ glyphosate-tolerant soybean cultivar TMG133 (typically available from Monsanto in Brazil)—growth stage: 1st trifoliate.
as §6, §7, §8, §9, §10, §11, §12, §13, §14
Glycine max (GLXMA, soybean) cultivar “TMG133” is Roundup Ready™ glyphosate-tolerant soybean cultivar TMG133, and is typically available from Monsanto in Brazil.

[5] = tested on: Digitaria sanguinalis (DIGSA); experiment: as above; details: 8 g/ha; for percentage control of Digitaria sanguinalis: adjuvant 0.5% v/v TEHP + 1.0% v/v AMS + 12.5% v/v IPA
Description: as §3, §4, §5
Digitaria sanguinalis (DIGSA)—growth stage 12 or 13
as §6, §7, §8, §9, §10, §11, §12, §13, §14

[6] = tested on: Brachiaria decumbens (BRADC); experiment: as above; details: 8 g/ha, 14 DAA
Description: as §3, §4, §5
Brachiaria decumbens (BRADC)—growth stage (GS) 12 or 13 (or GS 12)—or, if BRADC is not used, then sometimes Brachiaria platyphylla (BRAPP)—growth stage 12 or 13
as §6, §7, §8, §9, §10, §11, §12
Compounds A2 and A7 were tested using the 0.5% v/v Hexamoll™ DINCH™+1.0% v/v AMS+12.5% v/v IPA adjuvant system. Compounds A11, A12, A14, A20 and A21 were tested using the 0.5% v/v tris-(2-ethylhexyl)phosphate (“TEHP”)+1.0% v/v AMS+12.5% v/v IPA adjuvant system. […]

[7] = 14 or 15 DAA, adjuvant 0.5% v/v TEHP + 1.0% v/v AMS + 12.5% v/v IPA
[8] = 14 DAA, adjuvant 0.5% v/v TEHP + 1.0% v/v AMS + 12.5% v/v IPA
[9] = 14 DAA, adjuvant 0.5% v/v Hexamoll DINCH + 1.0% v/v AMS + 12.5% v/v IPA
[10] = 15 DAA, adjuvant 0.5% v/v TEHP + 1.0% v/v AMS + 12.5% v/v IPA

| Compound | pest or weed control at 62.5 g/ha (Avena fatua (AVEFA)) [%] | pest or weed control at 250 g/ha (Avena fatua (AVEFA)) [%] | plant injury at 62.5 g/ha [1] [%] | plant injury at 250 g/ha [1] [%] | pest or weed control at 62.5 g/ha (Lolium perenne (LOLPE)) [%] | pest or weed control at 250 g/ha (Lolium perenne (LOLPE)) [%] | further results |
| --- | --- | --- | --- | --- | --- | --- | --- |
| C#CCC1CC(=O)C(c2c(Cl)cc(-c3ccc(F)c(F)c3)cc2OC)C1=O (stereo not drawn) [Compound A13] | 100 | 100 | 80 | 80 | 90 | 100 |  |
| C#CCC1C(=O)C(c2c(C)cc(C)cc2C)C(=O)C1CC#C (stereo not drawn) [Compound A42] |  | 80 |  | 20 |  | 100 |  |
| C#CCC1CC(=O)C(c2c(C)cc(C)cc2C)C1=O (stereo not drawn) [Compound A23] | 90 | 90 | 50 | 70 | 90 | 100 |  |
| C#CCC1CC(=O)C(c2c(F)cc(-c3ccc(F)cc3F)cc2OC)C1=O (stereo not drawn) [Compound A21] |  |  |  |  |  |  | percentage control of Zea mays ([2]; 14 or 15 DAA): 95%; percentage phytotoxicity on Glycine max cultivar Nikko [3, 7]: 5%; percentage control of Eleusine indica (Eleusine indica (ELEIN); 14 or 15 DAA): 25%; percentage phytotoxicity on Glycine max cultivar TMG133 [4, 7]: 5%; percentage control of Digitaria sanguinalis ([5]; 14 or 15 DAA): 45% |
| C#CCC1CC(=O)C(c2c(Cl)cc(-c3ccc(Cl)cn3)cc2OC)C1=O (stereo not drawn) [Compound A10] | 100 | 100 | 90 | 90 | 100 | 100 |  |
| C#CCC1CC(=O)C(c2c(F)cc(-c3ccc(Cl)cc3)cc2Cl)C1=O (stereo not drawn) [Compound A6, 2-[2-chloro-4-(4-chlorophenyl)-6-fluorophenyl]-4-prop-2-ynylcyclopentane-1,3-dione] |  | 90 |  | 80 |  | 80 |  |
| C#CCC1CC(=O)C(c2c(Cl)cc(-c3ccc(Cl)cc3)cc2OC)C1=O (stereo not drawn) [Compound A11, 2-[2-chloro-4-(4-chlorophenyl)-6-methoxyphenyl]-4-prop-2-ynylcyclopentane-1,3-dione] |  |  |  |  |  |  | percentage control of Zea mays ([2]; 14 DAA): 100%; percentage phytotoxicity on Glycine max cultivar Nikko [3, 8]: 15%; percentage control of Eleusine indica (Eleusine indica (ELEIN); 14 DAA): 95%; percentage phytotoxicity on Glycine max cultivar TMG133 [4, 8]: 12.5%; percentage control of Digitaria sanguinalis ([5]; 14 DAA): 99%; percentage control of Brachiaria decumbens (BRADC) ([6]; adjuvant 0.5% v/v TEHP + 1.0% v/v AMS + 12.5% v/v IPA): 99% |
| C#CCC1CC(=O)C(c2c(C)cc(-c3ncc(Cl)cc3F)cc2C)C1=O (stereo not drawn) [Compound A3] | 90 | 100 | 90 | 90 | 100 | 100 |  |
| C#CCC1CC(=O)C(c2c(F)cc(-c3ccc(F)cc3)cc2OC)C1=O (stereo not drawn) [Compound A20, 2-[2-fluoro-4-(4-fluorophenyl)-6-methoxyphenyl]-4-prop-2-ynylcyclopentane-1,3-dione] |  |  |  |  |  |  | percentage control of Zea mays ([2]; 14 or 15 DAA): 90%; percentage phytotoxicity on Glycine max cultivar Nikko [3, 7]: 2%; percentage control of Eleusine indica (Eleusine indica (ELEIN); 14 or 15 DAA): 15%; percentage phytotoxicity on Glycine max cultivar TMG133 [4, 7]: 10%; percentage control of Digitaria sanguinalis ([5]; 14 or 15 DAA): 75% |
| C#CCC1CC(=O)C(c2c(Cl)cc(-c3ccc(F)cc3)cc2OC)C1=O (stereo not drawn) [Compound A7] |  |  |  |  |  |  | percentage control of (phytotoxicity on) Zea mays (ZEAMX, maize, corn) [2, 9]: 100%; percentage phytotoxicity on Glycine max cultivar Nikko [3, 9]: 2.5%; percentage control of (phytotoxicity on) Eleusine indica (ELEIN) (Eleusine indica (ELEIN); [9]): 91.7%; percentage phytotoxicity on Glycine max cultivar TMG133 [4, 9]: 0%; percentage control of (phytotoxicity on) Digitaria sanguinalis (DIGSA) [5, 9]: 95%; percentage control of (phytotoxicity on) Brachiaria decumbens (BRADC) ([6]; adjuvant 0.5% v/v Hexamoll DINCH + 1.0% v/v AMS + 12.5% v/v IPA): 95% |
| C#CCC1CC(=O)C(c2c(CC)cc(C)cc2CC)C1=O (stereo not drawn) [Compound A25, 2-(2,6-diethyl-4-methyl-phenyl)-4-(prop-2-ynyl)-cyclopentane-1,3-dione] | 100 | 100 | 30 | 60 | 100 | 100 |  |
| C#CCC1CC(=O)C(c2c(F)cc(-c3ccc(Cl)cc3)cc2OC)C1=O (stereo not drawn) [Compound A14] |  | 100 |  | 70 |  | 80 | percentage control of Zea mays ([2]; 15 DAA): 90%; percentage phytotoxicity on Glycine max cultivar Nikko [3, 10]: 5%; percentage control of Eleusine indica (Eleusine indica (ELEIN); 15 DAA): 20%; percentage phytotoxicity on Glycine max cultivar TMG133 [4, 10]: 5%; percentage control of Digitaria sanguinalis ([5]; 15 DAA): 85% |
| C#CCC1CC(=O)C(c2c(F)cc(-c3ccc(Cl)cn3)cc2Cl)C1=O (stereo not drawn) [Compound A8] | 90 | 100 | 80 | 80 | 70 | 100 |  |
